Source: patent US11629171B2, “Beta-hairpin peptidomimetics” (POLYPHOR AG, priority 2017, dated 2023)
Values after ≈ are worked out from the molar mass of the structure shown. Where a SMILES comes first, the peptide text is derived from it. Bridges are numbered along the chain shown (N, C = ends). Roman numbers before positions name the chains, in order. [ ]: non-standard residue; d: D form. d(pGlu) = O=C1CC[C@H](C(=O)O)N1; Thr(ol) = C[C@@H](O)[C@H](N)CO; Pen = CC(C)(S)[C@H](N)C(=O)O; Tle = CC(C)(C)[C@H](N)C(=O)O; Hiv = CC(C)[C@H](O)C(=O)O; dDab = NCC[C@@H](N)C(=O)O; hSer = N[C@@H](CCO)C(=O)O; Dab = NCC[C@H](N)C(=O)O; Dap = NC[C@H](N)C(=O)O

What was measured:
Assay type in all cases: cell-based
[1] = test system: human red blood cells (hRBC); experiment: Hemolysis; settings: red cells of human, 1 h, 200
Method in brief: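 Percent hemolysis relative to 2% Triton X-100 (100%) and PBS/10% water (0%), from blank-corrected OD540 of diluted supernatants. Peptides tested at 200 μg/mL against 20% (v/v) washed human erythrocytes, 1 h, 37° C, shaking at 300 rpm.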

[2] = test system: Klebsiella pneumoniae 968733; settings: 968733
Method in brief: (§1)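 MIC in μg/mL, read as no visible growth after 18-20 hours at 35° C. Peptides were serially diluted two-fold in MH-II broth plus P-80 (0.002% final, v/v) and inoculated at about 10^6 CFU/mL following the CLSI broth microdilution standard.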

[3] = test system: Acinetobacter baumannii 872842; settings: 872842
Method in brief: as §1

[4] = test system: Enterobacter cloacae 848840; settings: 848840
Method in brief: as §1

[5] = test system: Pseudomonas aeruginosa ATCC 27853; settings: ATCC 27853
Method in brief: as §1

[6] = test system: Escherichia coli ATCC 25922; settings: ATCC 25922
Method in brief: as §1

[7] = test system: Acinetobacter baumannii DSM 30008; settings: DSM 30008
Method in brief: as §1

[8] = test system: Klebsiella pneumoniae SSI #3010; settings: SSI #3010
Method in brief: as §1

[9] = test system: Escherichia coli 926415; settings: 926415
Method in brief: as §1

Row | MIC [2] | MIC [3] | MIC [4] | MIC [5] | MIC [6] | MIC [7] | MIC [8] | MIC [9] | SMILES | Hemolysis at 200 μg/mL [1]
1 | 0.0625 mg/L (≈ 0.0252 µM) | 0.0625 mg/L (≈ 0.0252 µM) | 0.125 mg/L (≈ 0.0503 µM) | 0.125 mg/L (≈ 0.0503 µM) | 0.03125 mg/L (≈ 0.0126 µM) | 0.0625 mg/L (≈ 0.0252 µM) | 0.0625 mg/L (≈ 0.0252 µM) | 0.0625 mg/L (≈ 0.0252 µM) | CC(C)C[C@@H]1NC(=O)[C@@H](CC(C)C)NC(=O)[C@H](CCN)NC(=O)[C@@H](NC(=O)[C@H](CN)NC(=O)[C@@H](NC(=O)[C@H](CCN)NC(=O)CC[C@@H]2NC(=O)[C@H](CN)NC(=O)[C@H](Cc3ccc(O)cc3)NC(=O)[C@@H](NC(=O)[C@@H](NC(=O)[C@H]3CCC(=O)N3)C(C)C)CSSC[C@@H](C(=O)N[C@H](CO)[C@@H](C)O)NC(=O)[C@H](C(C)(C)C)NC(=O)[C@H](CO)NC(=O)[C@H](Cc3c[nH]c4ccccc34)NC(=O)[C@H]([C@@H](C)O)NC(=O)[C@@H](CCN)NC2=O)[C@@H](C)O)CCNC(=O)[C@H]([C@@H](C)O)NC(=O)[C@H](CCN)NC(=O)[C@H](CCN)NC1=O [Ex. 233] (I: [d(pGlu)]VCY[Dap]E[dDab]TWS[Tle]C[Thr(ol)] / II: [Dab]T[Dap][Dab][Dab][dL]L[Dab][Dab]T; disulfide I:3-I:12; amide I:6-II:N; lactam II:4-II:C) | <1%
2 | 0.25 mg/L (≈ 0.104 µM) | 0.25 mg/L (≈ 0.104 µM) | 0.125 mg/L (≈ 0.0518 µM) | 0.125 mg/L (≈ 0.0518 µM) | 0.0625 mg/L (≈ 0.0259 µM) | 0.0625 mg/L (≈ 0.0259 µM) | 0.0625 mg/L (≈ 0.0259 µM) | 0.5 mg/L (≈ 0.207 µM) | CC(C)C[C@@H]1NC(=O)[C@@H](CC(C)C)NC(=O)[C@H](CCN)NC(=O)[C@@H](NC(=O)[C@H](CCN)NC(=O)[C@@H](NC(=O)[C@H](CCN)NC(=O)CC[C@@H]2NC(=O)[C@@H](NC(=O)[C@H](Cc3ccc(O)cc3)NC(=O)[C@@H](NC(=O)[C@@H](O)C(C)C)[C@@H](C)O)C(C)(C)SSC[C@@H](C(=O)N[C@H](C(=O)N[C@@H](C)C(=O)N[C@H](CO)[C@@H](C)O)C(C)(C)C)NC(=O)[C@H](Cc3c[nH]c4ccccc34)NC(=O)[C@H](CCO)NC(=O)[C@@H](CCN)NC2=O)[C@@H](C)O)CCNC(=O)[C@H]([C@@H](C)O)NC(=O)[C@H](CCN)NC(=O)[C@H](CCN)NC1=O [Ex. 194] (I: H-[Hiv]TY[Pen]E[dDab][hSer]WC[Tle]A[Thr(ol)] / II: [Dab]T[Dab][Dab][Dab][dL]L[Dab][Dab]T; disulfide I:4-I:9; amide I:5-II:N; lactam II:4-II:C) | <1%
3 | 0.25 mg/L (≈ 0.104 µM) | 0.0625 mg/L (≈ 0.0259 µM) | 0.125 mg/L (≈ 0.0518 µM) | 0.25 mg/L (≈ 0.104 µM) | 0.0625 mg/L (≈ 0.0259 µM) | 0.0625 mg/L (≈ 0.0259 µM) | 0.0625 mg/L (≈ 0.0259 µM) | 0.125 mg/L (≈ 0.0518 µM) | CC(=O)N[C@H](C(=O)N[C@H]1CSSC[C@@H](C(=O)N[C@H](C(N)=O)[C@@H](C)O)NC(=O)[C@H](C(C)(C)C)NC(=O)[C@H](CO)NC(=O)[C@H](Cc2c[nH]c3ccccc23)NC(=O)[C@H](CO)NC(=O)[C@@H](CCN)NC(=O)[C@H](CCC(=O)N[C@@H](CCN)C(=O)N[C@H](C(=O)N[C@@H](CN)C(=O)N[C@H]2CCNC(=O)[C@H]([C@@H](C)O)NC(=O)[C@H](CCN)NC(=O)[C@H](CCN)NC(=O)[C@H]([C@@H](C)O)NC(=O)[C@@H](CC(C)C)NC(=O)[C@H](CCN)NC2=O)[C@@H](C)O)NC(=O)[C@H](CCN)NC(=O)[C@H](Cc2ccc(O)cc2)NC1=O)C(C)C [Ex. 139] (I: Ac-VCY[Dab]E[dDab]SWS[Tle]CT-NH2 / II: [Dab]T[Dap][Dab][Dab][dL]T[Dab][Dab]T; disulfide I:2-I:11; amide I:5-II:N; lactam II:4-II:C) | 2%
